Assay results: ChEMBL document CHEMBL1909046, “DrugMatrix in vitro pharmacology data”

Target: Carbonic anhydrase 2 (Homo sapiens, UniProt P00918)
Test: DRUGMATRIX: Carbonic Anhydrase II enzyme inhibition (substrate: 4-Nitrophenyl acetate (4-NPA))
Assay type: tissue-based, Erythrocyte
Settings: erythrocyte; Not Active = under 50% inhibition at 10 µM

Structure (SMILES) | IC50
CN1C2CCCC1CC(NC(=O)c1nn(C)c3ccccc13)C2 (configuration not stated) [GRANISETRON] | Not Active
Nc1nc2c(c(=O)[nH]1)N(C=O)C(CNc1ccc(C(=O)N[C@@H](CCC(=O)O)C(=O)O)cc1)CN2 (some centres not stated) [LEUCOVORIN] | Not Active
C[C@@H](O)[C@H]1C(=O)N2C(C(=O)O)=C(S[C@@H]3CN[C@H](C(=O)N(C)C)C3)[C@H](C)[C@H]12 [MEROPENEM] | Not Active
CC[C@@H](CO)NC(=O)[C@@H]1C=C2c3cccc4c3c(cn4C)C[C@H]2N(C)C1 [METHYSERGIDE] | Not Active
CCN(CC)CC#CCOC(=O)C(O)(c1ccccc1)C1CCCCC1 (configuration not stated) [OXYBUTYNIN] | Not Active
O=P(O)(O)C(O)(Cc1cccnc1)P(=O)(O)O [RISEDRONIC ACID] | Not Active
C=C(C)[C@H]1Cc2c(ccc3c2O[C@@H]2COc4cc(OC)c(OC)cc4[C@@H]2C3=O)O1 [ROTENONE] | Not Active
C#CCN(C)[C@H](C)Cc1ccccc1 [SELEGILINE] | Not Active
O=c1n(CCCN2CCN(c3cccc(Cl)c3)CC2)nc2ccccn12 [TRAZODONE] | Not Active

Target: D(3) dopamine receptor (Homo sapiens, UniProt P35462)
Sequence (P35462 whole entry): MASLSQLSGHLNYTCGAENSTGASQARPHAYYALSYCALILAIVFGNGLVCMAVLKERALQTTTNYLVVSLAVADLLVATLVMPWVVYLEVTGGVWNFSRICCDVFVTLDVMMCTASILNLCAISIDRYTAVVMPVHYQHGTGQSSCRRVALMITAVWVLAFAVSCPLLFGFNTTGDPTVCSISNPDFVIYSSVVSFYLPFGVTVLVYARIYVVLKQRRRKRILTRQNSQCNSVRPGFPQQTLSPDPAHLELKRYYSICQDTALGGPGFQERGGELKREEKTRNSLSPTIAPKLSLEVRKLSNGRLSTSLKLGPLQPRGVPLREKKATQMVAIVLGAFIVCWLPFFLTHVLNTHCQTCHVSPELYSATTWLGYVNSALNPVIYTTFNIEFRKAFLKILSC
Test: DRUGMATRIX: Dopamine D3 radioligand binding (ligand: [3H] Spiperone)
Assay type: cell membranes, CHO, Membrane
Settings: cho

Structure (SMILES) | IC50
CC(=O)Nc1nnc(S(N)(=O)=O)s1 [ACETAZOLAMIDE] | Not Active
CN1C2CCCC1CC(NC(=O)c1nn(C)c3ccccc13)C2 (configuration not stated) [GRANISETRON] | Not Active
Nc1nc2c(c(=O)[nH]1)N(C=O)C(CNc1ccc(C(=O)N[C@@H](CCC(=O)O)C(=O)O)cc1)CN2 (some centres not stated) [LEUCOVORIN] | Not Active
C[C@@H](O)[C@H]1C(=O)N2C(C(=O)O)=C(S[C@@H]3CN[C@H](C(=O)N(C)C)C3)[C@H](C)[C@H]12 [MEROPENEM] | Not Active
O=P(O)(O)C(O)(Cc1cccnc1)P(=O)(O)O [RISEDRONIC ACID] | Not Active
C=C(C)[C@H]1Cc2c(ccc3c2O[C@@H]2COc4cc(OC)c(OC)cc4[C@@H]2C3=O)O1 [ROTENONE] | Not Active
C#CCN(C)[C@H](C)Cc1ccccc1 [SELEGILINE] | Not Active
Nc1ccc(S(=O)(=O)Nc2ncccn2)cc1 [SULFADIAZINE] | Not Active

Same assay, conditions: read-out: IC50

Structure (SMILES) | IC50 [nM]
CC[C@@H](CO)NC(=O)[C@@H]1C=C2c3cccc4c3c(cn4C)C[C@H]2N(C)C1 [METHYSERGIDE] | 172

Same assay, conditions: read-out: Ki

Structure (SMILES) | Ki [nM]
CC[C@@H](CO)NC(=O)[C@@H]1C=C2c3cccc4c3c(cn4C)C[C@H]2N(C)C1 [METHYSERGIDE] | 59

Test system: not listed separately
Test: DRUGMATRIX: Glutamate, NMDA, Agonism radioligand binding (ligand: [3H] CGP-39653)
Assay type: cell membranes, Rattus norvegicus, Wistar, Cerebral cortex, Membrane
Settings: Not Active = under 50% inhibition at 10 µM

Structure (SMILES) | IC50 | Ki
Nc1nc2c(c(=O)[nH]1)N(C=O)C(CNc1ccc(C(=O)N[C@@H](CCC(=O)O)C(=O)O)cc1)CN2 (some centres not stated) [LEUCOVORIN] | Not Active | Not Active
C[C@@H](O)[C@H]1C(=O)N2C(C(=O)O)=C(S[C@@H]3CN[C@H](C(=O)N(C)C)C3)[C@H](C)[C@H]12 [MEROPENEM] | Not Active | Not Active
O=P(O)(O)C(O)(Cc1cccnc1)P(=O)(O)O [RISEDRONIC ACID] | Not Active | Not Active
C=C(C)[C@H]1Cc2c(ccc3c2O[C@@H]2COc4cc(OC)c(OC)cc4[C@@H]2C3=O)O1 [ROTENONE] | Not Active | Not Active
C#CCN(C)[C@H](C)Cc1ccccc1 [SELEGILINE] | Not Active | Not Active
Nc1ccc(S(=O)(=O)Nc2ncccn2)cc1 [SULFADIAZINE] | Not Active | Not Active

Target: T1, Amine oxidase [flavin-containing] A (Homo sapiens, UniProt P21397)
T1 sequence (P21397 whole entry): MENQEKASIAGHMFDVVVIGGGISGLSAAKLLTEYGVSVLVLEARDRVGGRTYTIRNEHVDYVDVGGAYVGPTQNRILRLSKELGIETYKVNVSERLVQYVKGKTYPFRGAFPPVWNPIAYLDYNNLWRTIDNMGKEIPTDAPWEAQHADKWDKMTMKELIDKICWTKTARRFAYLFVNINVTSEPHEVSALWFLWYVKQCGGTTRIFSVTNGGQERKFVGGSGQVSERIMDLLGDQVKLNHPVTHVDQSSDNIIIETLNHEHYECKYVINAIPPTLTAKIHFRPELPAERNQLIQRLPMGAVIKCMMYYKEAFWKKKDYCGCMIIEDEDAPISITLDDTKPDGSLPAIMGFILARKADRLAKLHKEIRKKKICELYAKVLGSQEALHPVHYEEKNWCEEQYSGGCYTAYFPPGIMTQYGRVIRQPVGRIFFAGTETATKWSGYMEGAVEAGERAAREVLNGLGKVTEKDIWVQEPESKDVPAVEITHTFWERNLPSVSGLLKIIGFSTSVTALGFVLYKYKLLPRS
Test: DRUGMATRIX: Monoamine Oxidase MAO-A enzyme inhibition (substrate: Kynuramine)
Design: species or system BTI-TN-5B1-4
Settings: bti-tn-5b1-4; Not Active = under 50% inhibition at 10 µM

Structure (SMILES) | IC50
CC(=O)Nc1nnc(S(N)(=O)=O)s1 [ACETAZOLAMIDE] | Not Active
CN1C2CCCC1CC(NC(=O)c1nn(C)c3ccccc13)C2 (configuration not stated) [GRANISETRON] | Not Active
Nc1nc2c(c(=O)[nH]1)N(C=O)C(CNc1ccc(C(=O)N[C@@H](CCC(=O)O)C(=O)O)cc1)CN2 (some centres not stated) [LEUCOVORIN] | Not Active
C[C@@H](O)[C@H]1C(=O)N2C(C(=O)O)=C(S[C@@H]3CN[C@H](C(=O)N(C)C)C3)[C@H](C)[C@H]12 [MEROPENEM] | Not Active
CC[C@@H](CO)NC(=O)[C@@H]1C=C2c3cccc4c3c(cn4C)C[C@H]2N(C)C1 [METHYSERGIDE] | Not Active
CCN(CC)CC#CCOC(=O)C(O)(c1ccccc1)C1CCCCC1 (configuration not stated) [OXYBUTYNIN] | Not Active
O=P(O)(O)C(O)(Cc1cccnc1)P(=O)(O)O [RISEDRONIC ACID] | Not Active
C=C(C)[C@H]1Cc2c(ccc3c2O[C@@H]2COc4cc(OC)c(OC)cc4[C@@H]2C3=O)O1 [ROTENONE] | Not Active
Nc1ccc(S(=O)(=O)Nc2ncccn2)cc1 [SULFADIAZINE] | Not Active
O=c1n(CCCN2CCN(c3cccc(Cl)c3)CC2)nc2ccccn12 [TRAZODONE] | Not Active

Target: T2, Muscarinic acetylcholine receptor M5 (Homo sapiens, UniProt P08912); also: in other assays of this panel Not Active means under 50% inhibition at 10 µM
T2 sequence (P08912 whole entry): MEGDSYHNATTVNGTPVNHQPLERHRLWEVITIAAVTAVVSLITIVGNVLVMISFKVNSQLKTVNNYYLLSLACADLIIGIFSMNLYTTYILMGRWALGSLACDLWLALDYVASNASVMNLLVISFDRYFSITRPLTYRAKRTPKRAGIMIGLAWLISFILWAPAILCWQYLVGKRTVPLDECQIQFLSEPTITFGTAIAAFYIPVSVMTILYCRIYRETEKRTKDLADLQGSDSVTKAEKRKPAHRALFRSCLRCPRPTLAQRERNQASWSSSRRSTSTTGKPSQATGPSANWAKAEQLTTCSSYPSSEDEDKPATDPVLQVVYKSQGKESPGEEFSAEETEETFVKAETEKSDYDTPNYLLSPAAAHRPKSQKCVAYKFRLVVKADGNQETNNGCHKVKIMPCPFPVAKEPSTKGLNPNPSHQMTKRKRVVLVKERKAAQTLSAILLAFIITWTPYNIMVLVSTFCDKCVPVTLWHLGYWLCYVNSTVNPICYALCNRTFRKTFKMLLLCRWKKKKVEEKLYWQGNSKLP
Assay type: cell membranes, Membrane
Settings: cho-k1

Structure (SMILES) | IC50
CC(=O)Nc1nnc(S(N)(=O)=O)s1 [ACETAZOLAMIDE] | Not Active
CN1C2CCCC1CC(NC(=O)c1nn(C)c3ccccc13)C2 (configuration not stated) [GRANISETRON] | Not Active
Nc1nc2c(c(=O)[nH]1)N(C=O)C(CNc1ccc(C(=O)N[C@@H](CCC(=O)O)C(=O)O)cc1)CN2 (some centres not stated) [LEUCOVORIN] | Not Active
C[C@@H](O)[C@H]1C(=O)N2C(C(=O)O)=C(S[C@@H]3CN[C@H](C(=O)N(C)C)C3)[C@H](C)[C@H]12 [MEROPENEM] | Not Active
CC[C@@H](CO)NC(=O)[C@@H]1C=C2c3cccc4c3c(cn4C)C[C@H]2N(C)C1 [METHYSERGIDE] | Not Active
O=P(O)(O)C(O)(Cc1cccnc1)P(=O)(O)O [RISEDRONIC ACID] | Not Active
C=C(C)[C@H]1Cc2c(ccc3c2O[C@@H]2COc4cc(OC)c(OC)cc4[C@@H]2C3=O)O1 [ROTENONE] | Not Active
C#CCN(C)[C@H](C)Cc1ccccc1 [SELEGILINE] | Not Active
Nc1ccc(S(=O)(=O)Nc2ncccn2)cc1 [SULFADIAZINE] | Not Active
O=c1n(CCCN2CCN(c3cccc(Cl)c3)CC2)nc2ccccn12 [TRAZODONE] | Not Active

Target: T3, Cathepsin G (Homo sapiens, UniProt P08311);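 also: inhibition of Cathepsin G enzyme activity, tested on an AMC-conjugated peptide substrate; in other assays of this panel Not Active means under 50% inhibition at 10 µM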
T3 sequence (P08311 whole entry): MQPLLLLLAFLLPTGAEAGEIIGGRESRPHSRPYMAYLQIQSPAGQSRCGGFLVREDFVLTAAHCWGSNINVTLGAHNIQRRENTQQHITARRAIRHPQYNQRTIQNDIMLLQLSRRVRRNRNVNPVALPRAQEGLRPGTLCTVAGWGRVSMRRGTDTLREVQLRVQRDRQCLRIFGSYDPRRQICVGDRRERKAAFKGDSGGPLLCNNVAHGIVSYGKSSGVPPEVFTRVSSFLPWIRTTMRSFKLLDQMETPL
Assay type: tissue-based
Settings: neutrophil

Structure (SMILES) | IC50
CC(=O)Nc1nnc(S(N)(=O)=O)s1 [ACETAZOLAMIDE] | Not Active
CN1C2CCCC1CC(NC(=O)c1nn(C)c3ccccc13)C2 (configuration not stated) [GRANISETRON] | Not Active
Nc1nc2c(c(=O)[nH]1)N(C=O)C(CNc1ccc(C(=O)N[C@@H](CCC(=O)O)C(=O)O)cc1)CN2 (some centres not stated) [LEUCOVORIN] | Not Active
C[C@@H](O)[C@H]1C(=O)N2C(C(=O)O)=C(S[C@@H]3CN[C@H](C(=O)N(C)C)C3)[C@H](C)[C@H]12 [MEROPENEM] | Not Active
CC[C@@H](CO)NC(=O)[C@@H]1C=C2c3cccc4c3c(cn4C)C[C@H]2N(C)C1 [METHYSERGIDE] | Not Active
CCN(CC)CC#CCOC(=O)C(O)(c1ccccc1)C1CCCCC1 (configuration not stated) [OXYBUTYNIN] | Not Active
O=P(O)(O)C(O)(Cc1cccnc1)P(=O)(O)O [RISEDRONIC ACID] | Not Active
C=C(C)[C@H]1Cc2c(ccc3c2O[C@@H]2COc4cc(OC)c(OC)cc4[C@@H]2C3=O)O1 [ROTENONE] | Not Active
C#CCN(C)[C@H](C)Cc1ccccc1 [SELEGILINE] | Not Active
Nc1ccc(S(=O)(=O)Nc2ncccn2)cc1 [SULFADIAZINE] | Not Active
O=c1n(CCCN2CCN(c3cccc(Cl)c3)CC2)nc2ccccn12 [TRAZODONE] | Not Active

Target: Mitogen-activated protein kinase 3 (Homo sapiens, UniProt P27361)
Sequence (P27361 whole entry): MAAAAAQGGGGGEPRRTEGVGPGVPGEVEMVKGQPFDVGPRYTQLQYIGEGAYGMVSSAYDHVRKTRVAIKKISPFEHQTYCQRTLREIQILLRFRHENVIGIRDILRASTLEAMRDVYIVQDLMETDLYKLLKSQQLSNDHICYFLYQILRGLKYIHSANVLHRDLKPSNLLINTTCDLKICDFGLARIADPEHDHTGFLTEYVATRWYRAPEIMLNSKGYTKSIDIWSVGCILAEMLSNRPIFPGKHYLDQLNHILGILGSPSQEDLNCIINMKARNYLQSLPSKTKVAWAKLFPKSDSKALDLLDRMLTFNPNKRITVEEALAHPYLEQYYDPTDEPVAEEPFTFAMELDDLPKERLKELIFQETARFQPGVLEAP
Test: DRUGMATRIX: Protein Serine/Threonine Kinase, ERK1 enzyme inhibition (substrate: Myelin Basic Protein)
Design: species or system Escherichia coli
Settings: Not Active = under 50% inhibition at 10 µM

Structure (SMILES) | IC50
CC(=O)Nc1nnc(S(N)(=O)=O)s1 [ACETAZOLAMIDE] | Not Active
CN1C2CCCC1CC(NC(=O)c1nn(C)c3ccccc13)C2 (configuration not stated) [GRANISETRON] | Not Active
C[C@@H](O)[C@H]1C(=O)N2C(C(=O)O)=C(S[C@@H]3CN[C@H](C(=O)N(C)C)C3)[C@H](C)[C@H]12 [MEROPENEM] | Not Active
CC[C@@H](CO)NC(=O)[C@@H]1C=C2c3cccc4c3c(cn4C)C[C@H]2N(C)C1 [METHYSERGIDE] | Not Active
CCN(CC)CC#CCOC(=O)C(O)(c1ccccc1)C1CCCCC1 (configuration not stated) [OXYBUTYNIN] | Not Active
O=P(O)(O)C(O)(Cc1cccnc1)P(=O)(O)O [RISEDRONIC ACID] | Not Active
C=C(C)[C@H]1Cc2c(ccc3c2O[C@@H]2COc4cc(OC)c(OC)cc4[C@@H]2C3=O)O1 [ROTENONE] | Not Active
C#CCN(C)[C@H](C)Cc1ccccc1 [SELEGILINE] | Not Active
Nc1ccc(S(=O)(=O)Nc2ncccn2)cc1 [SULFADIAZINE] | Not Active
O=c1n(CCCN2CCN(c3cccc(Cl)c3)CC2)nc2ccccn12 [TRAZODONE] | Not Active
